# Results from ChEMBL document CHEMBL5113423, “Discovery and preclinical profile of sudapyridine (WX-081), a novel anti-tuberculosis agent” (Bioorg Med Chem Lett, 2022).
# Tested on: Mycobacterium tuberculosis variant bovis
# Assay: Antimycobacterial activity against Mycobacterium bovis ATCC35737 assessed as mycobacterial growth inhibition
# Assay type: functional
smiles,measurement,value
COc1ncc(-c2ccccc2)cc1[C@@H](c1ccccc1)[C@@](O)(CCN(C)C)c1cccc2ccccc12,MIC,0.5 µg/mL
